The source of these data is patent publication EP0553673A1 (priority 1992, dated 1993).

For this test, the system named is Krebszellen der Zellinie BIR-M1Rk. Format: cell-based, Marshall-Ratten.

Regarding `COC(CCOCc1ccccc1)(CCOP(N)(=O)N(CCCl)CCCl)OC` (racemic) [Beispiel 6], the “um den Faktor verringerte Überlebensrate der Krebszellen” value (pH 6) is recorded as 10 000. In addition, the Toxizität entry (pH 7) is “nur eine geringe Toxizität”.
